Test results reported in patent US9833463B2, “Sitagliptin tannate complex” (MERCK SHARP & DOHME CORP., priority 2014, dated 2017).

Assay type: physicochemical
Protocol: The dissolution profile of the sitagliptin tannate complexes of Example 1 and 2 using simulated saliva fluid (SSF) and simulated gastric fluid (SGF) by using the following two stage dissolution protocol:
Stage 1: A sample of sitagliptin tannate complex of Example 1 or 2 was placed in 10 mL of SSF, which was prepared by dissolving 8.0 g of NaCl, 0.19 g of potassium phosphate monobasic, and 2.38 g of sodium phosphate dibasic in 1 L of water, and adjusting to pH 6.8 with phosphoric acid, heated to 37° C., for 1 minute and an aliquot was removed.
Stage 2: The remaining solution transferred to 500 mL of SGF, which was prepared by dissolving 2.0 g of NaCl in 1 L of water, and adding 1.4 mL of concentrated hydrochloric acid. The SGF was stirred at 37° C. with apparatus 2 (paddles), and aliquots were collected at 6 time-points.
The aliquots were then analyzed by HPLC to determine the amount of free sitagliptin.

sitagliptin tannate complex
solubility of the complex at neutral pH: not soluble or almost not soluble | release in acidic pH (acidic pH, such as that found in the stomach): immediate release | release rate at neutral pH (neutral pH, such as that found in the mouth): negligible release rate

sitagliptin tannate complex [Example 2]
sitagliptin release from the complex in SGF (stage 2) (simulated gastric fluid (low pH), 37° C., apparatus 2 (paddles), 6 time-points, FIG. 1 / FIG. 2): rapidly released | sitagliptin released from the complex in SSF (stage 1) (simulated saliva fluid pH 6.8, 37° C., 1 minute, FIG. 1 / FIG. 2): very little to no sitagliptin was released
